Measurements taken from ChEMBL document CHEMBL3751764, “Synthesis and in vitro antiproliferative activity of novel pyrazolo[3,4-d]pyrimidine derivatives” (Medchemcomm, 2015).

Columns and labels:
[1] = Cytotoxicity against human RPMI8226 cells assessed as cell growth at 10 uM after 72 hrs by SRB assay relative to control; assay type: functional; details: RPMI-8226, 72 h, read-out: Activity
SR = test: Cytotoxicity against human SR cells assessed as cell growth at 10 uM after 72 hrs by SRB assay relative to control; assay type: functional; details: read-out: Activity
[2] = Cytotoxicity against human UACC257 cells assessed as cell growth at 10 uM after 72 hrs by SRB assay relative to control; assay type: functional; details: UACC-257, 72 h, read-out: Activity
[3] = Cytotoxicity against human HCT116 cells assessed as cell growth at 10 uM after 72 hrs by SRB assay relative to control; assay type: functional; details: HCT-116, 72 h, read-out: Activity
[4] = Cytotoxicity against human SF539 cells assessed as cell growth at 10 uM after 72 hrs by SRB assay relative to control; assay type: functional; details: SF-539, 72 h, read-out: Activity
[5] = Cytotoxicity against human Caki1 cells assessed as cell growth at 10 uM after 72 hrs by SRB assay relative to control; assay type: functional; details: CAKI-1, 72 h, read-out: Activity
T47D = test: Cytotoxicity against human T47D cells assessed as cell growth at 10 uM after 72 hrs by SRB assay relative to control; assay type: functional; details: read-out: Activity
SK-MEL-5 = test: Cytotoxicity against human SK-MEL-5 cells assessed as cell growth at 10 uM after 72 hrs by SRB assay relative to control; assay type: functional; details: SK-MEL-5, 72 h, read-out: Activity
[6] = Cytotoxicity against human BT549 cells assessed as cell growth at 10 uM after 72 hrs by SRB assay relative to control; assay type: functional; details: BT-549, 72 h, read-out: Activity
[7] = Cytotoxicity against human DU145 cells assessed as cell growth at 10 uM after 72 hrs by SRB assay relative to control; assay type: functional; details: DU-145, 72 h, read-out: Activity
[8] = Cytotoxicity against human COLO205 cells assessed as cell growth at 10 uM after 72 hrs by SRB assay relative to control; assay type: functional; details: COLO 205, 72 h, read-out: Activity
NCI-H460 = test: Cytotoxicity against human NCI-H460 cells assessed as cell growth at 10 uM after 72 hrs by SRB assay relative to control; assay type: functional; details: NCI-H460, 72 h, read-out: Activity
[9] = Cytotoxicity against human HL-60(TB) cells assessed as cell growth at 10 uM after 72 hrs by SRB assay relative to control; assay type: functional; details: HL-60, 72 h, read-out: Activity
[10] = Cytotoxicity against human PC3 cells assessed as cell growth at 10 uM after 72 hrs by SRB assay relative to control; assay type: functional; details: PC-3, 72 h, read-out: Activity
MDA-MB-468 = test: Cytotoxicity against human MDA-MB-468 cells assessed as cell growth at 10 uM after 72 hrs by SRB assay relative to control; assay type: functional; details: MDA-MB-468, 72 h, read-out: Activity
NCI-H23 = test: Cytotoxicity against human NCI-H23 cells assessed as cell growth at 10 uM after 72 hrs by SRB assay relative to control; assay type: functional; details: NCI-H23, 72 h, read-out: Activity
[11] = Cytotoxicity against human UO31 cells assessed as cell growth at 10 uM after 72 hrs by SRB assay relative to control; assay type: functional; details: UO-31, 72 h, read-out: Activity
[12] = Cytotoxicity against human SW620 cells assessed as cell growth at 10 uM after 72 hrs by SRB assay relative to control; assay type: functional; details: SW-620, 72 h, read-out: Activity
[13] = target: Vascular endothelial growth factor receptor 2 (Homo sapiens, UniProt P35968); test: Inhibition of human VEGFR2 at 10 uM after 20 to 40 mins by liquid scintillation counting analysis in presence of […]; parameters: scale not given: the % may be the effect or the level left
Sequence of Vascular endothelial growth factor receptor 2 (P35968 whole entry): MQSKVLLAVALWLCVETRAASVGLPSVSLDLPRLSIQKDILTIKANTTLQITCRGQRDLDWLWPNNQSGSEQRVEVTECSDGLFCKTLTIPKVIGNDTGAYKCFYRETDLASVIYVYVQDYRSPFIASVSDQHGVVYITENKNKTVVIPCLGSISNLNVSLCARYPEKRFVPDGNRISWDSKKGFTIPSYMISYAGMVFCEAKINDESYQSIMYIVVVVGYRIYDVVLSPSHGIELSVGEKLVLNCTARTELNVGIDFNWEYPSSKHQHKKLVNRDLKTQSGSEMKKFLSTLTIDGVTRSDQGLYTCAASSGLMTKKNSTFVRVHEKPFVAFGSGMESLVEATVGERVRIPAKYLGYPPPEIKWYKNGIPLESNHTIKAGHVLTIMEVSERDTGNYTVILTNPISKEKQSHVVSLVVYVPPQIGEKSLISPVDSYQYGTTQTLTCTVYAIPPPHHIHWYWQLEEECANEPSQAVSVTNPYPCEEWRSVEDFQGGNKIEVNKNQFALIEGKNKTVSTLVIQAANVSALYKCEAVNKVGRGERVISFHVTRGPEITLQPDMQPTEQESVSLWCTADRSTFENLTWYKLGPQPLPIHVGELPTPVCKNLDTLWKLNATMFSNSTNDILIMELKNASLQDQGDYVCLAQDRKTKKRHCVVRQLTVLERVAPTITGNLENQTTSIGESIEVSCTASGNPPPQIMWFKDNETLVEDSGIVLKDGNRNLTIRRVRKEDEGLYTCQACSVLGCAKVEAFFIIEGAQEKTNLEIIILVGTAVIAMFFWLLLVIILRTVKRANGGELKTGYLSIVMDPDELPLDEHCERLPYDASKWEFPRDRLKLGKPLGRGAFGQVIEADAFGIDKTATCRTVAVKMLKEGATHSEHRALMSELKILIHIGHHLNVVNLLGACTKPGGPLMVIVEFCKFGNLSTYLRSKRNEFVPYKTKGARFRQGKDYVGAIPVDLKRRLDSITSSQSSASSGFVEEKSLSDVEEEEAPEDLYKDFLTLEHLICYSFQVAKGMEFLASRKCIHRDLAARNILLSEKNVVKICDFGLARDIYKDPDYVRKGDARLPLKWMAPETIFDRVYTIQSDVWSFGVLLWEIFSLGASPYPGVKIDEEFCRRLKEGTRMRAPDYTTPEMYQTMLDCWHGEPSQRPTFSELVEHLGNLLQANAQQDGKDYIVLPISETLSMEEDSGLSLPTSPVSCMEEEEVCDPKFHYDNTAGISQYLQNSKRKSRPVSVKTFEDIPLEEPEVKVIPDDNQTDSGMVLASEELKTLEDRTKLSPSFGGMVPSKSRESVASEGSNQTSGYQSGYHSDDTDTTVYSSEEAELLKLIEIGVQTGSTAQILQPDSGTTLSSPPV

[14] = Cytotoxicity against human OVCAR4 cells assessed as cell growth at 10 uM after 72 hrs by SRB assay relative to control; assay type: functional; details: OVCAR-4, 72 h, read-out: Activity
[15] = Cytotoxicity against human OVCAR5 cells assessed as cell growth at 10 uM after 72 hrs by SRB assay relative to control; assay type: functional; details: OVCAR-5, 72 h, read-out: Activity
[16] = Cytotoxicity against human HOP92 cells assessed as cell growth at 10 uM after 72 hrs by SRB assay relative to control; assay type: functional; details: HOP-92, 72 h, read-out: Activity
[17] = Cytotoxicity against human TK10 cells assessed as cell growth at 10 uM after 72 hrs by SRB assay relative to control; assay type: functional; details: TK-10, 72 h, read-out: Activity
A498 = test: Cytotoxicity against human A498 cells assessed as cell growth at 10 uM after 72 hrs by SRB assay relative to control; assay type: functional; details: A498, 72 h, read-out: Activity
KM12 = test: Cytotoxicity against human KM12 cells assessed as cell growth at 10 uM after 72 hrs by SRB assay relative to control; assay type: functional; details: KM12, 72 h, read-out: Activity
[18] = Cytotoxicity against human OVCAR3 cells assessed as cell growth at 10 uM after 72 hrs by SRB assay relative to control; assay type: functional; details: OVCAR-3, 72 h, read-out: Activity
[19] = Cytotoxicity against human OVCAR8 cells assessed as cell growth at 10 uM after 72 hrs by SRB assay relative to control; assay type: functional; details: OVCAR-8, 72 h, read-out: Activity
[20] = Cytotoxicity against human HCT15 cells assessed as cell growth at 10 uM after 72 hrs by SRB assay relative to control; assay type: functional; details: HCT-15, 72 h, read-out: Activity
A549 = test: Cytotoxicity against human A549 cells assessed as cell growth at 10 uM after 72 hrs by SRB assay relative to control; assay type: functional; details: A549, 72 h, read-out: Activity
HT-29 = test: Cytotoxicity against human HT-29 cells assessed as cell growth at 10 uM after 72 hrs by SRB assay relative to control; assay type: functional; details: HT-29, 72 h, read-out: Activity
[21] = Cytotoxicity against human HCC2998 cells assessed as cell growth at 10 uM after 72 hrs by SRB assay relative to control; assay type: functional; details: HCC 2998, 72 h, read-out: Activity
Malme-3M = test: Cytotoxicity against human MALME-3M cells assessed as cell growth at 10 uM after 72 hrs by SRB assay relative to control; assay type: functional; details: read-out: Activity
NCI-H322M = test: Cytotoxicity against human NCI-H322M cells assessed as cell growth at 10 uM after 72 hrs by SRB assay relative to control; assay type: functional; details: read-out: Activity
MDA-MB-231 = test: Cytotoxicity against human MDA-MB-231 cells assessed as cell growth at 10 uM after 72 hrs by SRB assay relative to control; assay type: functional; details: MDA-MB-231, 72 h, read-out: Activity
[22] = Cytotoxicity against human SNB19 cells assessed as cell growth at 10 uM after 72 hrs by SRB assay relative to control; assay type: functional; details: SNB-19, 72 h, read-out: Activity
SN12C = test: Cytotoxicity against human SN12C cells assessed as cell growth at 10 uM after 72 hrs by SRB assay relative to control; assay type: functional; details: read-out: Activity

| Compound | growth at 10 µM [1] [%] | growth at 10 µM (SR) [%] | growth at 10 µM [2] [%] | growth at 10 µM [3] [%] | growth at 10 µM [4] [%] | growth at 10 µM [5] [%] | growth at 10 µM (T47D) [%] | growth at 10 µM (SK-MEL-5) [%] | growth at 10 µM [6] [%] | growth at 10 µM [7] [%] | growth at 10 µM [8] [%] | growth at 10 µM (NCI-H460) [%] | growth at 10 µM [9] [%] | growth at 10 µM [10] [%] | growth at 10 µM (MDA-MB-468) [%] | growth at 10 µM (NCI-H23) [%] | growth at 10 µM [11] [%] | growth at 10 µM [12] [%] | Activity [13] [%] | growth at 10 µM [14] [%] | other results |
| --- | --- | --- | --- | --- | --- | --- | --- | --- | --- | --- | --- | --- | --- | --- | --- | --- | --- | --- | --- | --- | --- |
| Clc1ccc(-n2ncc3c(Nc4ccc(OCc5ccccc5)cc4)ncnc32)cc1 | 86.4 | 83.3 | 102 | 94.8 | 92.4 | 93.7 | 82.5 | 94.4 | 107 | 100 | 91.2 | 93.1 | 86.9 | 86.1 | 91.5 | 92.7 | 83.6 | 101 | 0 | 80.6 | growth at 10 µM [15]: 92.8%; growth at 10 µM [16]: 97.8%; growth at 10 µM [17]: 92.1%; growth at 10 µM (A498): 85.2%; growth at 10 µM (KM12): 80.2%; growth at 10 µM [18]: 102%; growth at 10 µM [19]: 98%; growth at 10 µM [20]: 87.2%; growth at 10 µM (A549): 88.8%; growth at 10 µM (HT-29): 84.7%; growth at 10 µM [21]: 98%; growth at 10 µM (Malme-3M): 85.1%; growth at 10 µM (NCI-H322M): 75% |
| c1ccc(COc2ccc(Nc3ncnc4c3cnn4-c3ccccc3)cc2)cc1 | 96.5 | 92 | 121 | 106 | 99.6 | 99.1 | 100 | 94.3 | 106 | 104 | 107 | 93.7 | 99.8 | 88.5 | 93.1 | 109 | 79.6 | 98.7 | -5 | 91.3 | growth at 10 µM (MDA-MB-231): 101%; growth at 10 µM [22]: 96%; growth at 10 µM (SN12C): 97.4%; growth at 10 µM [15]: 98.9%; growth at 10 µM [16]: 98.8%; growth at 10 µM [17]: 111%; growth at 10 µM (A498): 77.9%; growth at 10 µM (KM12): 98.2%; growth at 10 µM [18]: 113%; growth at 10 µM [19]: 113%; growth at 10 µM [20]: 72.4%; growth at 10 µM (A549): 104%; growth at 10 µM (HT-29): 116%; growth at 10 µM [21]: 108%; growth at 10 µM (Malme-3M): 92.8%; growth at 10 µM (NCI-H322M): 84.1% |
| O=c1sc2cc(Nc3ncnc4c3cnn4-c3ccccc3)ccc2n1Cc1ccc(Cl)cc1 | 63.5 | 80.6 | 92.6 | 80.3 | 79.2 | 71.6 | 62.3 | 87.2 | 101 | 94.5 | 92.7 | 83.5 | 66.9 | 55.6 | 65.9 | 84.7 | 50.7 | 84.4 | -7 | 87 | growth at 10 µM (MDA-MB-231): 57.7%; growth at 10 µM [22]: 85.6%; growth at 10 µM (SN12C): 75%; growth at 10 µM [15]: 75.1%; growth at 10 µM [16]: 64.4%; growth at 10 µM [17]: 105%; growth at 10 µM (A498): 59%; growth at 10 µM (KM12): 71.6%; growth at 10 µM [18]: 86.6%; growth at 10 µM [19]: 87.9%; growth at 10 µM [20]: 86.5%; growth at 10 µM (A549): 78%; growth at 10 µM (HT-29): 106%; growth at 10 µM (Malme-3M): 86.4%; growth at 10 µM (NCI-H322M): 75.7% |
| O=C(NC1CCCCC1)c1ccc(Nc2ncnc3c2cnn3-c2ccccc2)cc1 | 89.5 | 67.5 | 56.5 | 37.6 | 43.7 | 62.3 | 76.8 | 75.4 | 59.8 | 54.6 | 65.4 | 42.2 | 106 | 53.3 | 76.1 | 72 | 57.7 | 72.9 | 7 | 30.3 | growth at 10 µM (MDA-MB-231): 8.76%; growth at 10 µM [22]: 48.7%; growth at 10 µM (SN12C): 19%; growth at 10 µM [15]: 80.3%; growth at 10 µM [16]: 37.7%; growth at 10 µM [17]: 51%; growth at 10 µM (A498): 50.4%; growth at 10 µM (KM12): 88.5%; growth at 10 µM [18]: 87.4%; growth at 10 µM [19]: 21.6%; growth at 10 µM [20]: 66.6%; growth at 10 µM (A549): 16.6%; growth at 10 µM (HT-29): 70.2%; growth at 10 µM (Malme-3M): 2.93%; growth at 10 µM (NCI-H322M): 64% |
